In patent US20220265657A1, “ADMINISTRATION METHOD AND DOSAGE REGIMEN FOR TREATMENT OF NEURODEGENERATIVE DISEASES USING TRAMETINIB AND MARKERS” (GENUV INC., priority 2019, published 2022):

How the values were obtained:
primary cortical neurons = assay: Dendritic spine formation in primary cortical neurons; assay type: cell-based, ICR mice
Method: Cell culture: SH-SY5Y neuroblastoma cells were cultured at 37° C., 5% CO2., in Dulbecco's Modified Eagle Medium/Ham's F-12 nutrient mixture (DMEM/F12) (Invitrogen, Carlsbad, Calif.) supplemented with 10% heat-inactivated fetal bovine serum containing 100 units/ml penicillin, 100 μg/ml streptomycin. Primary cortical neuron cultures were derived from embryo day 18 (E18) from ICR mice. The dissociated cells were plated on glass cover slips coated with poly-D-lysine in Neurobasal medium supplemented with 2% B27 (Invitrogen), 100 units/ml penicillin, 100 μg/ml streptomycin, and 2 mM L-glutamine. Primary NSCs from normal mice were isolated from the subventricular zone (SVZ) of 8 week-old C57BL/6 mice brain. NSCs from adult Tg2576 mice brain were obtained from Seoul National University Hospital. The neurospheres were cultured as previously described (M. Y. Kim, B. S. Moon, K. Y. Choi, Isolation and maintenance of cortical neural progenitor cells in vitro. Methods Mol Biol 1018, 3-10 (2013)). For neurosphere culture from normal mice, the cells were dissociated from brain tissue and grown in N2 medium in 25 cm^2 flasks (SPL, Gyeonggi-do, Korea) in suspension. bFGF (20 ng/ml, Peprotech, Princeton, N.J.) and human EGF (20 ng/ml, Peprotech) were added to the media to allow the cells to form neurospheres. For analyses, NSCs were cultured as a monolayer. For differentiation of NSCs, the neurospheres were dissociated with TrypLE (Invitrogen), plated on 15 μg/ml poly-L-ornithine-(Sigma-Aldrich, St. Louis, Mo.) and 10 μg/ml fibronectin (Gibco)-coated plates, and cultured in bFGF- and EGF-depleted N2 medium for 2 days. For neurosphere culture from Tg2576 mice, the cells were grown in DMEM/F12 supplemented with B27 supplements in 75 cm^2 flasks (SPL) in suspension. bFGF (10 ng/ml) and human EGF (10 ng/ml) were added to the media to allow the cells to form neurospheres. […]

[1] = system: whole brains of normal mice; assay: Bulk RNA-Seq of whole brains of normal mice; assay type: in vivo; settings: FC ≥1.3, FDR <0.05
Method: (§1) Trametinib treatment: Trametinib (Medchemexpress, Monmouth Junction, N.J.) was micronized and suspended in the vehicle containing 5% mannitol, 1.5% hydroxypropyl methylcellulose and 0.2% sodium lauryl sulfate. For pharmacokinetic analysis, 0.05, 0.2 and 0.8 mg/kg of trametinib were orally administered to 7-week-old normal mice (ICR, n=5 per group) as a single administration. […] For studies on the change in pERK expression in normal mice and whole cell RNA sequencing study, 0.1 mg/kg/day of trametinib (in 4% DMSO+96% corn oil) was orally administered to 6-week old C57BL/6 mice (n=3 per group). Mice were sacrificed after 1, 2, 3, or 4 weeks of administration. 5XFAD mice (male, n=7˜10 per group) were divided into vehicle and trametinib treated groups. 12-month old mice received vehicle or 0.1 mg/kg of trametinib for 1 month by oral gavage once a day (These mice are referred to as “13-month old 5XFAD mice” in the Examples). […] Blood was obtained after completion of treatment.
Whole cell RNA sequencing: RNA was isolated from mice whole brain, and cDNA libraries for RNA sequencing were prepared using the TruSeq Stranded mRNA Prep Kit (Illumina, San Diego, Calif.) according to the manufacturer's guidelines (1). The libraries were sequenced on the Illumina Nextseq500 platform, and the reads were mapped to the reference Mouse mm10 genome using Tophat v2.0.13. […] To define differentially expressed genes (DEG), we set up a stringent statistic cutoff of fold change (FC) of ≥1.3 and a false discovery rate (FDR)<0.05. […] Gene ontology was performed with the Gene Ontology program of the gene ontology consortium. Heatmap analysis was performed by R studio using the DEG list related with synapse, neurogenesis and lysosome.

5XFAD mice [2] = assay: LTP recording (EPSCs) at hippocampal CA1 region; assay type: in vivo; settings: 8-month old 5XFAD mice, oral administration
[3] = system: NSCs from adult Tg2576 mice; assay: Immunofluorescence staining of NSCs from adult Tg2576 mice; assay type: cell-based; settings: 100 nM, 48 hrs
Method: Cell culture: SH-SY5Y neuroblastoma cells were cultured at 37° C., 5% CO2., in Dulbecco's Modified Eagle Medium/Ham's F-12 nutrient mixture (DMEM/F12) (Invitrogen, Carlsbad, Calif.) supplemented with 10% heat-inactivated fetal bovine serum containing 100 units/ml penicillin, 100 μg/ml streptomycin. Primary cortical neuron cultures were derived from embryo day 18 (E18) from ICR mice. The dissociated cells were plated on glass cover slips coated with poly-D-lysine in Neurobasal medium supplemented with 2% B27 (Invitrogen), 100 units/ml penicillin, 100 μg/ml streptomycin, and 2 mM L-glutamine. Primary NSCs from normal mice were isolated from the subventricular zone (SVZ) of 8 week-old C57BL/6 mice brain. NSCs from adult Tg2576 mice brain were obtained from Seoul National University Hospital. The neurospheres were cultured as previously described (M. Y. Kim, B. S. Moon, K. Y. Choi, Isolation and maintenance of cortical neural progenitor cells in vitro. Methods Mol Biol 1018, 3-10 (2013)). For neurosphere culture from normal mice, the cells were dissociated from brain tissue and grown in N2 medium in 25 cm^2 flasks (SPL, Gyeonggi-do, Korea) in suspension. bFGF (20 ng/ml, Peprotech, Princeton, N.J.) and human EGF (20 ng/ml, Peprotech) were added to the media to allow the cells to form neurospheres. For analyses, NSCs were cultured as a monolayer. For differentiation of NSCs, the neurospheres were dissociated with TrypLE (Invitrogen), plated on 15 μg/ml poly-L-ornithine-(Sigma-Aldrich, St. Louis, Mo.) and 10 μg/ml fibronectin (Gibco)-coated plates, and cultured in bFGF- and EGF-depleted N2 medium for 2 days. For neurosphere culture from Tg2576 mice, the cells were grown in DMEM/F12 supplemented with B27 supplements in 75 cm^2 flasks (SPL) in suspension. bFGF (10 ng/ml) and human EGF (10 ng/ml) were added to the media to allow the cells to form neurospheres. For inducing differentiation and AP expression, the neurospheres were dissociated with pipetting, plated on 15 μg/ml poly-L-ornithine- and 10 μg/ml fibronectin (Gibco)-coated plates, and cultured in bFGF- and EGF-depleted medium for 2 days.
Immunocytochemistry: SH-SY5Y cells or adult NSCs were placed on glass coverslips coated with poly-L-ornithine/laminin or poly-D-lysine, respectively. After washing three times with PBS for 5 min, cells were fixed in 10% formalin for 15 min at room temperature. The cells were then washed with PBS and permeabilized in 0.1% Triton X-100 for 2 min. Cells were placed in blocking solution containing 5% BSA in PBS for 1 h at room temperature and incubated with anti-active caspase 3 (cell signaling), anti-Aβ (thermo), anti-Tau (Cell signaling), anti-LC3 (Cell signaling) and anti-LAMP1 (Abcam) in blocking buffer for 2 h at room temperature. After washing, cells were incubated with goat anti-rabbit antibody conjugated with Alexa Fluor 488 (Thermo) and/or goat anti-rat antibody conjugated with Alexa Fluor 555 (Thermo) overnight. After washing, cells were incubated with 4′,6-diamidino-2-phenylindole (DAPI) for 5 min. Coverslips were mounted using mounting medium (Biomeda, Foster City, Calif.) and visualized by confocal microscopy using a LSM700 microscope (Carl Zeiss). The percentage of coefficient was calculated using the pixels above threshold of fluorescence intensities. […] The fluorescence intensity was observed under a confocal microscopy using a LSM700 microscope (Carl Zeiss). The number of LysoTracker puncta was analyzed with Icy software.

5XFAD mice [4] = assay: Behavioral studies: Y-maze and novel object recognition tests; assay type: in vivo
Method: as §1

SH-SY5Y cells = assay: Immunocytochemistry of LC3, LAMP1 and lysotracker in SH-SY5Y cells; assay type: cell-based
Method: Cell culture: SH-SY5Y neuroblastoma cells were cultured at 37° C., 5% CO2., in Dulbecco's Modified Eagle Medium/Ham's F-12 nutrient mixture (DMEM/F12) (Invitrogen, Carlsbad, Calif.) supplemented with 10% heat-inactivated fetal bovine serum containing 100 units/ml penicillin, 100 μg/ml streptomycin. Primary cortical neuron cultures were derived from embryo day 18 (E18) from ICR mice. The dissociated cells were plated on glass cover slips coated with poly-D-lysine in Neurobasal medium supplemented with 2% B27 (Invitrogen), 100 units/ml penicillin, 100 μg/ml streptomycin, and 2 mM L-glutamine. Primary NSCs from normal mice were isolated from the subventricular zone (SVZ) of 8 week-old C57BL/6 mice brain. NSCs from adult Tg2576 mice brain were obtained from Seoul National University Hospital. […]
Immunocytochemistry: SH-SY5Y cells or adult NSCs were placed on glass coverslips coated with poly-L-ornithine/laminin or poly-D-lysine, respectively. […] The percentage of coefficient was calculated using the pixels above threshold of fluorescence intensities. […] The fluorescence intensity was observed under a confocal microscopy using a LSM700 microscope (Carl Zeiss). The number of LysoTracker puncta was analyzed with Icy software.

[5] = system: patient with Alzheimer's disease; assay: Therapeutic effects of trametinib in humans; assay type: in vivo, human; settings: daily for at least four weeks, brain Cmax at least 0.25 ng/g
Method: Trametinib is administered to a patient with Alzheimer's disease in an amount that provides a mean peak trametinib concentration (Cmax) of at least 0.25 ng/g in the brain. The administration is performed daily for at least four weeks.

CC(=O)Nc1cccc(-n2c(=O)n(C3CC3)c(=O)c3c(Nc4ccc(I)cc4F)n(C)c(=O)c(C)c32)c1 [trametinib]
increase in number of dendritic spines compared to vehicle treated group (primary cortical neurons; 100 nM): 24% | increase in number of dendritic spines compared to Aβ1-42 treated alone group (primary cortical neurons; Aβ1-42 oligomer-induced neurotoxic conditions): 80% | number of differentially expressed genes (DEGs) between vehicle and trametinib group ([1]; first week): 500 | number of differentially expressed genes (DEGs) between vehicle and trametinib group ([1]; fourth week): 538 | number of differentially expressed genes (DEGs) between vehicle and trametinib group ([1]; second week): 498 | number of differentially expressed genes (DEGs) between vehicle and trametinib group ([1]; third week): 446 | long-term potentiation (LTP), EPSC slope (5XFAD mice [2]): recovered in the trametinib-orally administered animals to a level almost comparable to that of the wild type control | active caspase 3 [3]: reduced active caspase 3 | autophagosome-lysosome fusions in axon-like elongated elements and soma [3]: markedly increased | cells with bipolar morphology with elongated neurites [3]: marked increase | differentiation of NSCs into neuron-like cells [3]: strongly induced differentiation of NSCs into neuron-like cells | expression of autophagosomes and lysosomes (LC3 and LAMP1 staining) [3]: markedly increased | memory formation in Y-maze and novel object recognition tests (5XFAD mice [4]): recovery of memory formation | co-staining of LC3-LAMP1 (SH-SY5Y cells; even in the presence of Aβ1-42 oligomers): increased co-staining of LC3-LAMP1 | lysotracker-positive acidic puncta (SH-SY5Y cells; in the presence of Aβ1-42 oligomers): increased lysotracker-positive acidic puncta | behavioral and/or physiological symptoms associated with Alzheimer's disease [5]: reduces behavioral and/or physiological symptoms associated with Alzheimer's disease
